Like-named read-outs stand apart in the source and are kept apart here.
System: HBV
Assay: HBV screening assay (viral DNA in baculovirus-HBV transduced HepG2 cells)
Format: cell-based
Method: HepG2 cells were transduced using a baculovirus to deliver the HBV genome essentially as previously described (Delaney et al. in Hepatology 1998; 28: 1134-1146). Transduced cells were cultured in supplemented EMEM media with 10% fetal bovine serum in a 5% CO2 incubator at 37° C. for three days in the presence of test compounds. The cells were lysed in a buffer containing 0.5% NP-40 and […] proteinase K. A solid-phase hybridization was performed to capture the viral DNA and to label the target DNA with Digoxigenin-labeled DNA probes. The viral DNA was detected by ELISA, using horseradish peroxidase-conjugated anti-digoxigenin antibodies.
The EC50 values were determined using ExcelFit software from the inhibition values of a titration curve for each compound. For CC50 determinations, the same titration of compounds was co-cultured with non-transduced HepG2 for three days under the conditions described above. The Promega CellTiter 96 Aqueous One Solution Cell Proliferation Assay was used to measure cell proliferation/viability. The CC50 values were determined using ExcelFit software from the inhibition values of the titration curve for each compound.

[1] = Hepatitis B virus, HepG2, 72 h, read-out: EC50 (antiviral activity), HBV-transduced HepG2 cells, three days with compound, viral DNA by ELISA

Row | SMILES | EC50 [1] | EC50 (read-out: EC50 (antiviral activity), HBV-transduced HepG2 cells, three days with compound, viral DNA by ELISA)
1 | CCOC(=O)C1CCN(C(=O)CC2CCc3c2nc2sc(C(N)=O)c(N)c2c3-c2cccs2)CC1 (centres unmarked) [Compound 56, 1-[2-(3-Amino-2-carbamoyl-4-thiophen-2-yl-6,7-dihydro-5H-cyclopenta[b]thieno[3,2-e]pyridin-7-yl)-acetyl]-piperidine-4-carboxylic acid ethyl ester] | > 10 µM | 
2 | NC(=O)c1sc2nc3c(c(-c4cccs4)c2c1N)CCC3CC(=O)NCCCN1CCOCC1 (centres unmarked) [Compound 57, 3-Amino-7-[(3-morpholin-4-yl-propylcarbamoyl)-methyl]-4-thiophen-2-yl-6,7-dihydro-5H-cyclopenta[b]thiano[3,2-e]pyridine-2-carboxylic acid amide] | > 10 µM | 
3 | CC1CCCCN1CCCNC(=O)CC1CCc2c1nc1sc(C(N)=O)c(N)c1c2-c1cccs1 (centres unmarked) [Compound 58, 3-Amino-7-{[3-(2-methyl-piperidin-1-yl)-propylcarbamoyl]-methyl}-4-thiophen-2-yl-6,7-dihydro-5H-cyclopenta[b]thieno[3,2-e]pyridine-2-carboxylic acid amide] | > 10 µM | 
4 | CCCCCCC1CCc2c1nc1sc(C(N)=O)c(N)c1c2-c1cccs1 (centres unmarked) [Compound 59, 3-Amino-7-hexyl-4-thiophen-2-6,7-dihydro-5H-cyclopenta[b]thieno[3,2-e]pyridine-2-carboxylic acid amide] | > 10 µM | 
5 | CCCCCCCC1CCc2c1nc1sc(C(N)=O)c(N)c1c2-c1cccs1 (centres unmarked) [Compound 60, 3-Amino-7-heptyl-4-thiophen-2-yl-6,7-dihydro-5H-cyclopenta[b]thieno[3,2-e]pyridine-2-carboxylic acid amide] | > 10 µM | 
6 | NC(=O)c1sc2nc3c(c(-c4cccs4)c2c1N)CCC3C1CCCC1 (centres unmarked) [Compound 61, 3-Amino-7-cyclopentyl-4-thiophen-2-yl-6,7-dihydro-5H-cyclopenta[b]thieno[3,2-e]pyridine-2-carboxylic acid amide] | 1 to 10 µM | 
7 | N#CCCC1CCCc2c1nc1sc(C(N)=O)c(N)c1c2-c1cccs1 (centres unmarked) [Compound 62, 3-Amino-8-(2-cyano-ethyl)-4-thiophen-2-yl-5,6,7,8-tetrahydro-thieno[2,3-b]quinoline-2-carboxylic acid amide] | > 10 µM | 
8 | CC(C)CC1CCCc2c1nc1sc(C(N)=O)c(N)c1c2-c1cccs1 (centres unmarked) [Compound 63, 3-Amino-8-isobutyl-4-thiophen-2-yl-5,6,7,8-tetrahydro-thieno[2,3-b]quinoline-2-carboxylic acid amide] | 1 to 10 µM | 
9 | NC(=O)c1sc2nc3c(c(-c4cccs4)c2c1N)CCCC3Cc1ccccc1 (centres unmarked) [Compound 64, 3-Amino-8-benzyl-4-thiophen-2-yl-5,6,7,8-tetrahydro-thieno[2,3-b]uinoline-2-carboxylic acid amide] | > 10 µM | 
10 | CCCC1CCCc2c1nc1sc(C(N)=O)c(N)c1c2-c1cccs1 (centres unmarked) [Compound 65, 3-Amino-8-propyl-4-thiophen-2-yl-5,6,7,8-tetrahydro-thieno[2,3-b]quinoline-2-carboxylic acid amide] | 1 to 10 µM | 
11 | NC(=O)c1sc2nc3c(c(-c4cccs4)c2c1N)CCCC3c1ccccc1 (centres unmarked) [Compound 66, 3-Amino-8-phenyl-4-thiophen-2-yl-5,6,7,8-tetrahydro-thieno[2,3-b]quinoline-2-carboxylic acid amide] | 1 to 10 µM | 
12 | COc1cccc(C2CCCc3c2nc2sc(C(N)=O)c(N)c2c3-c2cccs2)c1 (centres unmarked) [Compound 67, 3-Amino-8-(3-methoxy-phenyl)-4-thiophen-2-yl-5,6,7,8-tetrahydro-thieno[2,3-b]quinoline-2-carboxylic acid amide] | > 10 µM | 
13 | NC(=O)c1sc2nc3c(c(-c4cccs4)c2c1N)CCCC3C1CCCCC1 (centres unmarked) [Compound 68, 3-Amino-8-cyclohexyl-4-thiophen-2-yl-5,6,7,8-tetrahydro-thieno[2,3-b]quinoline-2-carboxylic acid amide] | > 10 µM | 
14 | COC1CCCc2c1nc1sc(C(N)=O)c(N)c1c2-c1cccs1 (centres unmarked) [Compound 69, 3-Amino-8-methoxy-4-thiophen-2-yl-5,6,7,8-tetrahydro-thieno[2,3-b]quinoline-2-carboxylic acid amide] | < 1 µM | 
15 | C=CCC1CCCc2c1nc1sc(C(N)=O)c(N)c1c2-c1cccs1 (centres unmarked) [Compound 70, 8-Allyl-3-amino-4-thiophen-2-yl-5,6,7,8-tetrahydro-thieno[2,3-b]quinoline-2-carboxylic acid amide] | 1 to 10 µM | 
16 | CCOC(=O)CC1CCCc2c1nc1sc(C(N)=O)c(N)c1c2-c1cccs1 (centres unmarked) [Compound 71, 3-Amino-8-carbethoxymethyl-4-thiophen-2-yl-5,6,7,8-tetrahydro-thieno[2,3-b]quinoline-2-carboxylic acid amide] | > 10 µM | 

Row | SMILES | EC50 [1] | EC50 (read-out: EC50 (antiviral activity), HBV-transduced HepG2 cells, three days with compound, viral DNA by ELISA)
17 | CC1CCc2nc3sc(C(N)=O)c(N)c3c(-c3cccs3)c2C1 (centres unmarked) [Compound 72, 3-Amino-6-methyl-4-thiophen-2-yl-5,6,7,8-tetrahydro-thieno[2,3-b]quinoline-2-carboxylic acid amide] | > 10 µM | 
18 | CCC1CCc2nc3sc(C(N)=O)c(N)c3c(-c3cccs3)c2C1 (centres unmarked) [Compound 73, 3-Amino-6-ethyl-4-thiophen-2-yl-5,6,7,8-tetrahydro-thieno[2,3-b]quinoline-2-carboxylic acid amide] | > 10 µM | 
19 | CC1CCc2c(nc3sc(C(N)=O)c(N)c3c2-c2cccs2)C1 (centres unmarked) [Compound 74, 3-Amino-7-methyl-4-thiophen-2-yl-5,6,7,8-tetrahydro-thieno[2,3-b]quinoline-2-carboxylic acid amide] | > 10 µM | 
20 | Cc1ccsc1-c1c2c(nc3sc(C(N)=O)c(N)c13)CCCC2=O [Compound 75, 3-Amino-4-(3-methyl-thiophen-2-yl)-5-oxo-5,6,7,8-tetrahydro-thieno[2,3-b]quinoline-2-carboxylic acid amide] | < 1 µM | 
21 | NC(=O)c1sc2nc3c(c(-c4cccs4)c2c1N)C(=O)CCC3 [Compound 76, 3-Amino-4-(thiophen-2-yl)-5-oxo-5,6,7,8-tetrahydro-thieno[2,3-b]quinoline-2-carboxylic acid amide] | 1 to 10 µM | 
22 | NC(=O)c1sc2nc3c(c(-c4ccc(Cl)cc4)c2c1N)C(=O)CCC3 [Compound 77, 3-Amino-4-(4-chloro-phenyl)-5-oxo-5,6,7,8-tetrahydro-thieno[2,3-b]quinoline-2-carboxylic acid amide] | > 10 µM | 
23 | NC(=O)c1sc2nc3c(c(-c4cccs4)c2c1N)CN(C(=S)Nc1ccccc1)C3 [Compound 79, 3-Amino-6-phenylthiocarbamoyl-4-thiophen-2-yl-6,7-dihydro-5H-1-thia-6,8-diaza-s-indacene-2-carboxylic acid amide] | > 10 µM | 
24 | NC(=O)c1sc2nc3c(c(-c4cccs4)c2c1N)CN(C(=S)NCC1CCCO1)C3 (centres unmarked) [Compound 80, 3-Amino-6-[(tetrahydro-furan-2-ylmethyl)-thiocarbamoyl]-4-thiophen-2-yl-6,7-dihydro-5H-1-thia-6,8-diaza-s-indacene-2-carboxylic acid amide] | > 10 µM | 
25 | NC(=O)c1sc2nc3c(c(-c4cccs4)c2c1N)CN(C(=S)NC1CCCC1)C3 [Compound 81, 3-Amino-6-cyclopentylthiocarbamoyl-4-thiophen-2-yl-6,7-dihydro-5H-1-thia-6,8-diaza-s-indacene-2-carboxylic acid amide] | 1 to 10 µM | 
26 | CCCCNC(=S)N1Cc2nc3sc(C(N)=O)c(N)c3c(-c3cccs3)c2C1 [Compound 82, 3-Amino-6-butylthiocarbamoyl-4-thiophen-2-yl-6,7-dihydro-5H-1-thia-6,8-diaza-s-indacene-2-carboxylic acid amide] | 1 to 10 µM | 
27 | Cc1ccc(NC(=S)N2Cc3nc4sc(C(N)=O)c(N)c4c(-c4cccs4)c3C2)cc1 [Compound 83, 3-Amino-4-thiophen-2-yl-6-p-tolylthiocarbamoyl-6,7-dihydro-5H-1-thia-6,8-diaza-s-indacene-2-carboxylic acidamide] | > 10 µM | 
28 | NC(=O)c1sc2nc3c(c(-c4cccs4)c2c1N)CN(C(=S)NCc1ccccc1)C3 [Compound 84, 3-Amino-6-benzylthiocarbamoyl-4-thiophen-2-yl-6,7-dihydro-5H-1-thia-6,8-diaza-s-indacene-2-carboxylic acid amide] |  | 1 to 10 µM
29 | COc1cccc(NC(=S)N2Cc3nc4sc(C(N)=O)c(N)c4c(-c4cccs4)c3C2)c1 [Compound 85, 3-Amino-6-(3-methoxy-phenylthiocarbamoyl)-4-thiophen-2-yl-6,7-dihydro-5H-1-thia-6,8-diaza-s-indacene-2-carboxylic acid amide] | > 10 µM | 
30 | NC(=O)c1sc2nc3c(c(-c4cccs4)c2c1N)CN(C(=S)NCCCc1ccccc1)C3 [Compound 86, 3-Amino-6-(3-phenyl-propylthiocarbamoyl)-4-thiophen-2-yl-6,7-dihydro-5H-1-thia-6,8-diaza-s-indacene-2-carboxylic acid amide] | 1 to 10 µM | 
31 | NC(=O)c1sc2nc3c(c(-c4cccs4)c2c1N)CN(C(=S)Nc1cccc(C(F)(F)F)c1)C3 [Compound 87, 3-Amino-4-thiophen-2-yl-6-(3-trifluoromethyl-phenylthiocarbamoyl)-6,7-dihydro-5H-1-thia-6,8-diaza-s-indacene-2-carboxylic acid amide] | > 10 µM | 
32 | NC(=O)c1sc2nc3c(c(-c4cccs4)c2c1N)CN(C(=S)Nc1ccc(F)cc1)C3 [Compound 88, 3-Amino-6-(4-fluoro-phenylthiocarbamoyl)-4-thiophen-2-yl-6,7-dihydro-5H-1-thia-6,8-diaza-s-indacene-2-carboxylic acid amide] | > 10 µM | 

— US20090029983A1, “NOVEL HETEROCYCLIC COMPOUNDS HAVING ANTI-HBV ACTIVITY” (priority 2005, published 2009)
